Results taken from patent publication US20240166693A1, “METHODS AND COMPOUNDS FOR MODULATING MYOTONIC DYSTROPY 1” (Design Therapeutics, Inc., priority 2020, published 2024).
Read-outs that look alike come from different tables or passages of the source.

Tested on: Myotonic Dystrophy 1 affected patient fibroblasts (Coriell GM04602; 1600 CTG repeats)
Assay: DM1 foci reduction assay (CAG10-Cy3 FISH, average foci per nucleus)
Format: cell-based
Settings: Homo sapiens, Fibroblast
Summary of the method: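 DM1 patient fibroblasts (GM04602, 1600 CTG) treated 48 h at 37 °C, 8-point 1:3 dilutions from 3 μM top dose; wild-type GM07492 as control. PFA-fixed, ethanol-permeabilized cells hybridized overnight with 5 nM CAG10-Cy3 probe, DAPI-counterstained, imaged at 20× in 4 fields; average foci per nucleus per well.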

[1] = DM1 fibroblasts, 48 h treatment, 8-point dose response, 3 μM top dose, read-out: Foci Reduction in Fibroblast EC50, 48 h
[2] = 48 h, read-out: Foci Reduction in Fibroblast EC50, 48 h (nM)

Structure (SMILES)	EC50 [1]	EC50 [2]
Cn1cc(CCn2c(CNCCOCCOCCNC(=O)CCNC(=O)c3nc(NC(=O)c4cc(NC(=O)CCNC(=O)c5nc(NC(=O)CCCNC(=O)c6cc(NC(=O)c7nc(NC(=O)CCNC(=O)c8cc(NC(=O)c9nccn9C)cn8C)cn7C)cn6C)cn5C)cn4C)cn3C)nc(-c3cnn(C)c3)c2-c2ccc(C#N)cc2)cn1 [Compound 171]	> 500 nM	
Cn1cc(CCn2c(CNCCOCCOCCOCCOCCOCCNC(=O)CCNC(=O)c3nc(NC(=O)c4cc(NC(=O)CCNC(=O)c5nc(NC(=O)CCCNC(=O)c6cc(NC(=O)c7nc(NC(=O)CCNC(=O)c8cc(NC(=O)c9nccn9C)cn8C)cn7C)cn6C)cn5C)cn4C)cn3C)nc(-c3cnn(C)c3)c2-c2ccc(C#N)cc2)cn1 [Compound 172]	> 500 nM	
CN(C)[C@@H]1CN(C2CCc3cccc(F)c32)C[C@H]1c1ccc(N2CCN(C(=O)COCCOCCOCCOCCOCCNC(=O)CCNC(=O)c3nc(NC(=O)c4cc(NC(=O)CCNC(=O)c5nc(NC(=O)CCCNC(=O)c6cc(NC(=O)c7nc(NC(=O)CCNC(=O)c8cc(NC(=O)c9nccn9C)cn8C)cn7C)cn6C)cn5C)cn4C)cn3C)CC2)cc1 (stereo partly drawn) [Compound 174]	> 500 nM	
CN(C)[C@@H]1CN(C2CCc3cccc(F)c32)C[C@H]1c1ccc(N2CCN(S(=O)(=O)CCOCCOCCOCCOCCOCCNC(=O)CCNC(=O)c3nc(NC(=O)c4cc(NC(=O)CCNC(=O)c5nc(NC(=O)CCCNC(=O)c6cc(NC(=O)c7nc(NC(=O)CCNC(=O)c8cc(NC(=O)c9nccn9C)cn8C)cn7C)cn6C)cn5C)cn4C)cn3C)CC2)cc1 (stereo partly drawn) [Compound 175]	100 to 500 nM	
CCN(CC)CCCC[C@H](NC(=O)[C@H](CC(C)C)NC(=O)[C@H](C)NC(=O)[C@H](Cc1ccccc1)NC(=O)c1ccc(C(C)(C)C)cc1)C(=O)N[C@@H](CO)C(=O)Nc1ccc(OCCOCCOCCOCCOCCNC(=O)CCNC(=O)c2nc(NC(=O)c3cc(NC(=O)CCNC(=O)c4nc(NC(=O)CCCNC(=O)c5cc(NC(=O)c6nc(NC(=O)CCNC(=O)c7cc(NC(=O)c8nccn8C)cn7C)cn6C)cn5C)cn4C)cn3C)cn2C)cc1 [Compound 177]		< 100 nM
CCN(CC)CCCC[C@H](NC(=O)[C@H](CC(C)C)NC(=O)[C@H](C)NC(=O)[C@H](Cc1ccccc1)NC(=O)c1ccc(C(C)(C)C)cc1)C(=O)N[C@@H](CO)C(=O)Nc1ccc(OCCOCCOCCNC(=O)CCNC(=O)c2nc(NC(=O)c3cc(NC(=O)CCNC(=O)c4nc(NC(=O)CCCNC(=O)c5cc(NC(=O)c6nc(NC(=O)CCNC(=O)c7cc(NC(=O)c8nccn8C)cn7C)cn6C)cn5C)cn4C)cn3C)cn2C)cc1 [Compound 178]		< 100 nM
CCN(CC)CCCC[C@H](NC(=O)[C@H](CC(C)C)NC(=O)[C@H](C)NC(=O)[C@H](Cc1ccccc1)NC(=O)c1ccc(C(C)(C)C)cc1)C(=O)N[C@@H](CO)C(=O)N1CCC(C#CC#CC2CCN(CCOCCOCCOCCNC(=O)CCNC(=O)c3nc(NC(=O)c4cc(NC(=O)CCNC(=O)c5nc(NC(=O)CCCNC(=O)c6cc(NC(=O)c7nc(NC(=O)CCNC(=O)c8cc(NC(=O)c9nccn9C)cn8C)cn7C)cn6C)cn5C)cn4C)cn3C)CC2)CC1 [Compound 180]		< 100 nM
CCN(CC)CCCC[C@H](NC(=O)[C@H](CC(C)C)NC(=O)[C@H](C)NC(=O)[C@H](Cc1ccccc1)NC(=O)c1ccc(C(C)(C)C)cc1)C(=O)N[C@@H](CO)C(=O)N1CCC(C#CC#CC2CCN(CCOCCNC(=O)CCNC(=O)c3nc(NC(=O)c4cc(NC(=O)CCNC(=O)c5nc(NC(=O)CCCNC(=O)c6cc(NC(=O)c7nc(NC(=O)CCNC(=O)c8cc(NC(=O)c9nccn9C)cn8C)cn7C)cn6C)cn5C)cn4C)cn3C)CC2)CC1 [Compound 181]		< 100 nM
CCN(CC)CCCC[C@H](NC(=O)[C@H](CC(C)C)NC(=O)[C@H](C)NC(=O)[C@H](Cc1ccccc1)NC(=O)c1ccc(C(C)(C)C)cc1)C(=O)N[C@@H](CO)C(=O)N1CCC(N2CCN(CCOCCOCCOCCOCCNC(=O)CCNC(=O)c3nc(NC(=O)c4cc(NC(=O)CCNC(=O)c5nc(NC(=O)CCCNC(=O)c6cc(NC(=O)c7nc(NC(=O)CCNC(=O)c8cc(NC(=O)c9nccn9C)cn8C)cn7C)cn6C)cn5C)cn4C)cn3C)CC2)CC1 [Compound 184]		> 500 nM
CCN(CC)CCCC[C@H](NC(=O)[C@H](CC(C)C)NC(=O)[C@H](C)NC(=O)[C@H](Cc1ccccc1)NC(=O)c1ccc(C(C)(C)C)cc1)C(=O)N[C@@H](CO)C(=O)N1CCN(CCOCCOCCOCCOCCNC(=O)CCNC(=O)c2nc(NC(=O)c3cc(NC(=O)CCNC(=O)c4nc(NC(=O)CCCNC(=O)c5cc(NC(=O)c6nc(NC(=O)CCNC(=O)c7cc(NC(=O)c8nccn8C)cn7C)cn6C)cn5C)cn4C)cn3C)cn2C)CC1 [Compound 185]		100 to 500 nM
CCN(CC)CCCC[C@H](NC(=O)[C@H](CC(C)C)NC(=O)[C@H](C)NC(=O)[C@H](Cc1ccccc1)NC(=O)c1ccc(C(C)(C)C)cc1)C(=O)N[C@@H](CO)C(=O)NCCOCCOCCOCCOCCN1CCN(C2CCN(C(=O)CCNC(=O)c3nc(NC(=O)c4cc(NC(=O)CCNC(=O)c5nc(NC(=O)CCCNC(=O)c6cc(NC(=O)c7nc(NC(=O)CCNC(=O)c8cc(NC(=O)c9nccn9C)cn8C)cn7C)cn6C)cn5C)cn4C)cn3C)CC2)CC1 [Compound 186]		> 500 nM
CCN(CC)CCCC[C@H](NC(=O)[C@H](CC(C)C)NC(=O)[C@H](C)NC(=O)[C@H](Cc1ccccc1)NC(=O)c1ccc(C(C)(C)C)cc1)C(=O)N[C@@H](CO)C(=O)NCCOCCOCCOCCOCCN1CCN(C(=O)CCNC(=O)c2nc(NC(=O)c3cc(NC(=O)CCNC(=O)c4nc(NC(=O)CCCNC(=O)c5cc(NC(=O)c6nc(NC(=O)CCNC(=O)c7cc(NC(=O)c8nccn8C)cn7C)cn6C)cn5C)cn4C)cn3C)cn2C)CC1 [Compound 187]		100 to 500 nM
CCN(CC)CCCC[C@H](NC(=O)[C@H](CC(C)C)NC(=O)[C@H](C)NC(=O)[C@H](Cc1ccccc1)NC(=O)c1ccc(C(C)(C)C)cc1)C(=O)N[C@@H](CO)C(=O)NCCOCCOCCOCCOCCOCCN(CCCCN=[N+]=[N-])C(=O)CCNC(=O)c1nc(NC(=O)c2cc(NC(=O)CCNC(=O)c3nc(NC(=O)CCCNC(=O)c4cc(NC(=O)c5nc(NC(=O)CCNC(=O)c6cc(NC(=O)c7nccn7C)cn6C)cn5C)cn4C)cn3C)cn2C)cn1C [Compound 189]		< 100 nM
CCCCCCNc1nc(NC2CCN(CCOCCOCCOCCOCCOCCNC(=O)CCNC(=O)c3nc(NC(=O)c4cc(NC(=O)CCNC(=O)c5nc(NC(=O)CCCNC(=O)c6cc(NC(=O)c7nc(NC(=O)CCNC(=O)c8cc(NC(=O)c9nccn9C)cn8C)cn7C)cn6C)cn5C)cn4C)cn3C)CC2)c2cc(OC)c(OC)cc2n1 [Compound 190]	> 500 nM	
CCCCCCNc1nc(NC2CCN(CCOCCOCCOCCOCCOCCOCCOCCOCCOCCOCCNC(=O)CCNC(=O)c3nc(NC(=O)c4cc(NC(=O)CCNC(=O)c5nc(NC(=O)CCCNC(=O)c6cc(NC(=O)c7nc(NC(=O)CCNC(=O)c8cc(NC(=O)c9nccn9C)cn8C)cn7C)cn6C)cn5C)cn4C)cn3C)CC2)c2cc(OC)c(OC)cc2n1 [Compound 191]	> 500 nM	
COc1cc2nc(N3CCCCC3)nc(NC3CCN(CCOCCOCCOCCOCCOCCNC(=O)CCNC(=O)c4nc(NC(=O)c5cc(NC(=O)CCNC(=O)c6nc(NC(=O)CCCNC(=O)c7cc(NC(=O)c8nc(NC(=O)CCNC(=O)c9cc(NC(=O)c%10nccn%10C)cn9C)cn8C)cn7C)cn6C)cn5C)cn4C)CC3)c2cc1OC [Compound 192]	> 500 nM	
COc1cc2nc(N3CCCCC3)nc(NC3CCN(CCOCCOCCOCCOCCOCCOCCOCCOCCOCCOCCNC(=O)CCNC(=O)c4nc(NC(=O)c5cc(NC(=O)CCNC(=O)c6nc(NC(=O)CCCNC(=O)c7cc(NC(=O)c8nc(NC(=O)CCNC(=O)c9cc(NC(=O)c%10nccn%10C)cn9C)cn8C)cn7C)cn6C)cn5C)cn4C)CC3)c2cc1OC [Compound 193]	> 500 nM	
CCN(CC)CCCC[C@H](NC(=O)[C@H](CC(C)C)NC(=O)[C@H](C)NC(=O)[C@H](Cc1ccccc1)NC(=O)c1ccc(C(C)(C)C)cc1)C(=O)N[C@@H](CO)C(=O)NCCOCCOCCOCCOCCOCCNC(=O)CCNC(=O)c1cc(NC(=O)c2nc(NC(=O)CCNC(=O)c3nc(NC(=O)CCCNC(=O)c4cc(NC(=O)c5nc(NC(=O)c6cc(NC(=O)CCNC(=O)c7nccn7C)cn6C)cn5C)cn4C)cn3C)cn2C)cn1C [Compound 285]		> 500 nM
